From article PMC12337281, “mTORC1-selective inhibitors rescue cellular phenotypes in TSC iPSC-derived neurons” (Frontiers in Neuroscience, 2025) come the findings set out here.

Bounds are passed on as bounds.

The test system of this experiment is TSC2–/– iPSC-derived neurons. Nature of the experiment: MEA weighted mean firing rate in TSC2–/– iPSC-derived neurons. The format is cell-based, human. From the text:
TSC2^–/– iPSC-derived cortical neurons were differentiated in two to three replicate batches, defined as independent plating of starting material iPSCs and use of reagents to differentiate iPSCs into neurons. The NGN2-induced cortical neurons were differentiated following previously published methods ([Winden et al., 2019]; [Zhang et al., 2013]) that are also described here. To establish a line of iPSCs expressing the NGN2 vector, on differentiation day - 2, iPSCs were dissociated with Accutase (Innovative Cell Technologies #AT104) and plated as single cells at 90,000 cells/cm^2 in mTeSR-1 media supplemented with 10 μM ROCK inhibitor (Y-27631, Cayman Chemical #10005583), on Geltrex-coated 12-well plates. While iPSCs were routinely cultured with StemFlex (as noted above), the NGN2 differentiation was optimized with mTeSR-1 media, so the switch was made to this media prior to initiating differentiation. One day after re-plating as single cells, on differentiation day - 1, iPSCs were transduced with lentiviral vectors expressing NGN2 and rtTA and 8 μg/ml polybrene (Sigma-Aldrich #TR-1003-G). The lentiviral particles were produced and concentrated at the Viral Core at Boston Children’s Hospital and were added to the culture at an MOI of 5 for each vector. Both plasmids are available at Addgene with the following IDs: 52047 and 20342. […]

As a reminder, the IC50 is the point on the concentration scale where inhibition reaches its midpoint. Read a low IC50 as greater potency. On to `CO[C@H]1C[C@@H]2CC[C@@H](C)[C@@](O)(O2)C(=O)C(=O)N2CCCC[C@H]2C(=O)O[C@H]([C@H](C)C[C@@H]2CC[C@@H](O)[C@H](OC)C2)CC(=O)[C@H](C)/C=C(\C)[C@@H](O)[C@@H](OC)C(=O)[C@H](C)C[C@H](C)/C=C/C=C/C=C/1C` [Rapamycin, rapamycin], for which 0.015 nM corresponded to half-maximal inhibition (Homo sapiens, Neuron, day 23, after 2 weeks treatment until day 21, replicate batch #1) (IC50). For the same molecule, the “Dose at which WMFR was lowered” value (during the 2 weeks treatment window, vs DMSO) was above 0.1 nM.
